The text below walks through data of patent EP4678629A1, “IONIZABLE LIPID MOLECULE, PREPARATION METHOD THEREFOR AND USE THEREOF” (Maxirna (Shanghai) Pharmaceutical Co., Ltd., priority 2023, dated 2024).

The nature of data set [1]: Size and polydispersity index (PDI) of the lipid nanoparticle by dynamic light scattering. It is filed as physicochemical. The conditions noted are these: LNP encapsulating eGFP mRNA, ionizable lipid/DOPE/cholesterol/DMG-PEG2000 50/10/48.25/1.25 mol%, N/P 12; for Particle size: in nm (unit assumed). How it is done: (§1) The ionizable lipid compound and positive control 1 from Example I were dissolved in ethanol at a molar ratio of 50:10:48.25:1.25 with DOPE, cholesterol, and DMG-PEG2000 (all purchased from A.V.T (Shanghai) Pharmaceutical Co., Ltd.) to prepare an ethanol lipid solution. The enhanced green fluorescent protein (eGFP) mRNA was diluted in 20 mM citrate buffer (pH=6.1) to obtain an mRNA aqueous solution. By using a microfluidic device (Micro&Nano Biologics Co., Ltd., model: INano ™ L) mix ethanol lipid solution and mRNA aqueous solution in a volume ratio of 1:3 to prepare a lipid nanoparticle with a total lipid to mRNA N/P ratio of 12. The medium was replaced by ultrafiltration, ethanol was removed and volumed with DPBS. Finally, the lipid nanoparticle was filtered through a 0.2 µm sterile filter to obtain an LNP preparation encapsulating eGFP mRNA using ionizable lipid/DOPE/cholesterol/DMG-PEG2000 (50/10/48.25/1.25 mol%), with an mRNA content of 0.002 mg/ml-0.5 mg/mL.
(§2) Using Malvern Zetasizer Nano ZS (Malvern UK), the size and polydispersity index (PDI) of the lipid nanoparticle were determined by dynamic light scattering in 173° backscatter detection mode, and the encapsulation efficiency was measured by Ribogreen method.

A short description of data set [2]: In vitro transfection of cells with eGFP-mRNA lipid nanoparticle (LNP preparation), fluorescence imaging and flow cytometry. To be noted: mouse, dc2.4 cells, 200 ng of mRNA per well, after 24 hours; read-out: Cell viability, %. The format is cell-based, mouse. From the text:
(§3) This example used mouse bone marrow-derived dendritic cells DC2.4 (purchased from Millipore) as the validation cell line for a lipid nanoparticle transfection experiment. DC2.4 cells adhered to the wall for growth. All operational steps of cell culture strictly followed the prescribed procedures, using sterile reagents for aseptic operations under a sterile workbench. The main operational steps involved were as follows: • 1) Cell recovery: the preserved cell cryopreservation solution was removed from the -80 °C freezer and immediately placed in a 37 °C water bath for rapid and continuous shaking, allowing it to completely melt within one minute. Fresh culture medium was added to a 15 mL centrifuge tube in advance, and the cell fluid was added to the centrifuge tube in a biosafety cabinet. A centrifuge tube of the same mass was taken, placed symmetrically in the centrifuge, and centrifuged at low speed for 5 minutes at 1200 rpm. After centrifugation, the upper clear liquid was removed, and an appropriate amount of culture medium was slowly added along the tube wall. After the cells were gently blown and dispersed evenly, the cell suspension was drawn and added to the prepared culture bottle. The state and distribution of cells in the early stage of recovery were observed under a microscope. The culture bottle was incubated in a 5% CO2 incubator at 37 °C, and the recovery time was recorded. • 2) Cell passaging: Under a microscope, if the cell density in the field of view reached 80%-90%, cells could be passaged and cultured. Adherent cells required trypsin digestion. In order to avoid residual serum in the culture medium reducing trypsin activity, the original culture medium was removed, and DPBS solution was added to wash once. After suctioning out the DPBS solution, trypsin was added to degrade the protein at the intercellular junction, thereby separating the cells and facilitating further cultivation. The mixture was gently shaken well and placed into the incubator for digestion for 2-3 minutes. After digestion was complete, an appropriate amount of culture medium was immediately added to the original culture dish to terminate digestion. Finally, a pipette was used to carefully blow off the cells and blow them until they were evenly dispersed, and then the cells were inoculated and subcultured in a certain proportion according to experimental requirements.
(§4) Transfection of DC2.4 cells • 1) DC2.4 cell recovery: the frozen DC2.4 cells were taken out from the -80 °C refrigerator and immediately put into a 37 °C water bath for rapid thawing. After melting, they were added to the preheated culture medium, and centrifuged at 1200 rpm for 5 minutes. The supernatant was discarded, and an appropriate amount of DMEM medium containing 10% FBS was added to resuspend the recovered DC2.4 cells, which were placed in a 37 °C, 5% CO2 incubator for activation culture. • 2) According to experimental requirements, DC2.4 cells were transfected into 24 well plates one day in advance. By counting cells, the number and viability of cells were recorded, and a cell suspension with 2 × 10^5 cells per well were taken. Then, a certain volume of DMEM medium containing 10% FBS was added and mixed evenly, wherein 1 mL was added per well for subsequent transfection experiments. • 3) After 24 hours, the culture medium was gently aspirated with a pipette 30 minutes in advance, and each well was washed with 1 mL of DPBS and aspirated. […] The mixture was placed in a 37 °C, 5% CO2 incubator for activation cultivation. • 6) After 24 hours, cell viability (%), eGFP positivity rate (%), and mean fluorescence intensity data were obtained through cell fluorescence imaging and flow cytometry.
For orientation: A flow cytometer gives signals particle by particle.

For another data set, the system named is DC2.4 cells. The description is as above. The format is cell-based, mouse. To be noted: for Positive rate, %: eGFP positivity rate; for Positive rate, % / Cell viability, %: DC2.4 cells, 200 ng of mRNA per well, after 24 hours; for Mean fluorescence intensity: eGFP-mRNA expression on DC2.4 after 24 hours, normalized based on Example 11.
Source text: as §3, §4

The nature of data set [3]: Encapsulation efficiency of the lipid nanoparticle (eGFP mRNA) by Ribogreen method. The format is physicochemical. The conditions noted are these: LNP encapsulating eGFP mRNA, ionizable lipid/DOPE/cholesterol/DMG-PEG2000 50/10/48.25/1.25 mol%, N/P 12. The protocol:
as §1, §2

In data set [1], `CCCCCCCCCCCCOC(=O)CCCN(CCCO)CCCN(CCCC(=O)OCCCCCCCCCCCC)CCCC(=O)OCCCCCCCCCCCC` [Example 112, 4,4'-didodecyl((3-((4-(dodecoxy)-4-oxobutyl)(3-hydroxypropyl)amino)propyl)azetidinyl)dibutanoate] yielded a PDI of 0.11 and a Particle size of 89.42. In addition, in data set [2], the viability at 24 h is 92.3%. Further, in the data set on DC2.4 cells, the “Positive rate, %” value came out at 95.39%. In addition, in data set [3], the “Encapsulation rate, %” value came out at 91.22%.
`CC/C=C\COC(=O)CCCCCCCN(CCO)CCCN(CCCCCCCC(=O)OC/C=C\CC)CCCCCCCC(=O)OC/C=C\CC` [Example 10, Di((Z)-pent-2-en-1-yl)8,8'-((3-((2-hydroxyethyl)(8-oxo-8-(((Z)-pent-2-en-1-yl)oxo)octyl)amino)propyl)azanediyl)dioctanoate]: in data set [1], the PDI is listed as 0.14 and the Particle size worked out at 90.73. Moreover, the viability at 24 h in data set [2] amounted to 95%. Also, the “Positive rate, %” value with DC2.4 cells is 95.39%. The “Encapsulation rate, %” value in data set [3] is on record as 89.02%.
Turning to `CCCCCCCCCCCOC(=O)CCCCCCCCCN(CCO)CCCN(CCCCCCCCCC(=O)OCCCCCCCCCCC)CCCCCCCCCC(=O)OCCCCCCCCCCC` [Example 91, Undecyl 10-(29-hydroxy-13-oxo-23-(10-oxo-10-(undecyl)oxydecyl)-23,27-diaza-12-oxanonacosane-27-yl)caprate], the PDI in data set [1] is 0.24. The “Cell viability, %” value in the data set on DC2.4 cells (1440 min) stood at 91.4%. Moreover, the “Positive rate, %” value in the data set with DC2.4 cells came to 62.74%. For the same compound, in data set [3], the “Encapsulation rate, %” value turned out to be 79.63%.
Take `CCCCCC/C=C\COC(=O)CCCCCCCCCN(CCO)CCCN(CCCCCCCCCC(=O)OC/C=C\CCCCCC)CCCCCCCCCC(=O)OC/C=C\CCCCCC` [Example 92, 10-((7Z)-27-hydroxy-21-(10-(((2Z)-non-2-enyl)oxy)-10-oxodecyl)-11-oxo-21,25-diaza-10-oxaheptacosane-7-en-25-yl)decanoic acid-(2Z)-non-2-en-1-yl ester]: in data set [1], the PDI is 0.28. Also, the “Cell viability, %” value in the data set with DC2.4 cells (1440 min) amounted to 92.6%. Moreover, the “Positive rate, %” value in the data set on DC2.4 cells came to 73.64%. Besides, the “Encapsulation rate, %” value in data set [3] is given as 76.22%.
In data set [1], `CCCCCCCCCCCCOC(=O)CCCN(CCCO)CCCCN(CCCC(=O)OCCCCCCCCCCCC)CCCC(=O)OCCCCCCCCCCCC` [Example 84] registered a PDI of 0.11 and a Particle size of 89.72. In addition, the “Cell viability, %” value in the data set with DC2.4 cells (1440 min) is 90.2%. Moreover, the “Positive rate, %” value in the data set on DC2.4 cells is reported as 96.42%. Besides, the “Encapsulation rate, %” value in data set [3] stood at 97.58%.
Take `CCCCCCCCCCCCCOC(=O)CCCN(CCCO)CCCCN(CCCC(=O)OCCCCCCCCCCCCC)CCCC(=O)OCCCCCCCCCCCCC` [Example 85, 4,4'-((4-((3-hydroxypropyl)(4-oxo-4-(tridecyloxy)butyl)amino)butyl)azetidinyl)dibutyric acid diester]: the PDI in data set [1] is on record as 0.10. For the same compound, the “Cell viability, %” value with DC2.4 cells (1440 min) came out at 95.9%. Further, the “Positive rate, %” value in the data set on DC2.4 cells is 96.2%. The “Encapsulation rate, %” value in data set [3] stood at 93.32%.
Turning to “Tetratridecyl 8,8',8",8"-(((3-hydroxypropyl)azadiyl)di(propane-3,1-diyl))di(azanetriyl)tetraoctanoate [Example 99]”, in data set [1], the PDI was 0.26. Besides, in the data set with DC2.4 cells, the “Cell viability, %” value stood at 93.2%; the “Positive rate, %” value stood at 77.44%; the Mean fluorescence intensity is 0.49. Also, the “Encapsulation rate, %” value in data set [3] is recorded as 69.17%.
In the same order, the values of “4,4'-(3-(((2-hydroxyethyl)((E)-4-oxo-4-(undecyloxy)but-2-en-1-yl)amino)propyl)azadiyl)(2E,2'E)-di(but-2-enoic acid) [Example 105]” are 0.24, 95.8%, 78.32%, 0.39 and 66.08%.
Consider “4,4'-didecyl((4-(decyloxy)-4-oxobutyl)(3-hydroxypropyl)amino)butyl)azetidinyl)dibutanoate [Example 102]”, for which, in data set [1], the PDI is recorded as 0.12 and the Particle size is given as 94.58. Also, in the data set with DC2.4 cells, the “Cell viability, %” value is recorded as 94.6%; the “Positive rate, %” value came to 93.18%; the Mean fluorescence intensity turned out to be 1.28. The “Encapsulation rate, %” value in data set [3] amounted to 93.93%.
For `CCCCCCCCCCCOC(=O)CCCCN(CCO)CCCN(CCCCC(=O)OCCCCCCCCCCC)CCCCC(=O)OCCCCCCCCCCC` [Example 38, Diundecyl 5,5'-((3-((2-hydroxyethyl)(5-oxo-5-(undecyloxy)pentyl)amino)propyl)azadiyl)dipentanoate], in data set [1], the PDI is 0.10 and the Particle size was found to be 65.19. Moreover, in the data set with DC2.4 cells (1440 min), the “Cell viability, %” value worked out at 94.1%. In addition, in the data set with DC2.4 cells, the “Positive rate, %” value is on record as 90.28%. For the same compound, the “Encapsulation rate, %” value in data set [3] turned out to be 99.04%.
Taken in the same sequence, the figures for `CCCCC/C=C\C/C=C\CCCCCCCCOC(=O)CCCCCCCN(CCO)CCCN(CCCCCCCC(=O)OCCCCCCCC/C=C\C/C=C\CCCCC)CCCCCCCC(=O)OCCCCCCCC/C=C\C/C=C\CCCCC` [Example 79] were 70.67, 99.80, 95.0%, 95.05% and 99.80%.
In the same order, the values of `CCCCCCCCCCCCCOC(=O)CCCCCCCN(CCO)CCCN(CCCCCCCC(=O)OCCCCCCCCCCCCC)CCCCCCCC(=O)OCCCCCCCCCCCCC` [Example 90, Tridecyl 8-(29-hydroxy-15-oxo-23-(8-oxo-8-(tridecyloxy)octyl)-23,27-diaza-14-oxanonacosane-27-yl)octanoate] are 0.14, 84.42, 91.6%, 92.38% and 94.33%.
In data set [1], “8-((6Z,10Z,46Z,49Z)-30-(3-hydroxypropyl)-20,36-dioxo-26,30-diaza-19,37-dioxapentatriacontane-6,9,46,49-tetraen-26-yl)(7Z,10Z)-hexadec-7,10-dien-1-yl octanoate [Example 96]” had a PDI of 0.13 and a Particle size of 89.25. Further, in the data set with DC2.4 cells, the “Cell viability, %” value was determined as 96.6%; the “Positive rate, %” value was found to be 94.64%; the Mean fluorescence intensity came out at 0.97. In addition, the “Encapsulation rate, %” value in data set [3] is given as 93.34%.
The compound `CC/C=C\COC(=O)CCCCCCCN(CCO)CCCN(CCCCCCCC(=O)OC/C=C\CC)CCCCCCCC(=O)OC/C=C\CC` [Example 97] had a PDI in data set [1] of 0.34. Further, the “Cell viability, %” value in the data set with DC2.4 cells (1440 min) amounted to 90.5%. In addition, the “Positive rate, %” value in the data set with DC2.4 cells stood at 83.64%. Further, in data set [3], the “Encapsulation rate, %” value was 67.68%.

A word on the viability: it is the share of living cells, or the viability signal relative to a control.
